Results reported in publication PMC8839210, “Identification of Inhibitory Activities of Dietary Flavonoids against URAT1, a Renal Urate Re-Absorber: In Vitro Screening and Fractional Approach Focused on Rooibos Leaves” (Nutrients, 2022).

Key:
URAT1 [1] = target: T1, URAT1 (Homo sapiens, UniProt Q96S37); settings: cited from earlier work
T1 construct: The complete human URAT1 cDNA in pEGFP-C1; expressed in transfected cells; host or cells: 293A cells (human embryonic kidney 293-derived), transient transfection with PEI-MAX
T1 sequence (Q96S37 1-553): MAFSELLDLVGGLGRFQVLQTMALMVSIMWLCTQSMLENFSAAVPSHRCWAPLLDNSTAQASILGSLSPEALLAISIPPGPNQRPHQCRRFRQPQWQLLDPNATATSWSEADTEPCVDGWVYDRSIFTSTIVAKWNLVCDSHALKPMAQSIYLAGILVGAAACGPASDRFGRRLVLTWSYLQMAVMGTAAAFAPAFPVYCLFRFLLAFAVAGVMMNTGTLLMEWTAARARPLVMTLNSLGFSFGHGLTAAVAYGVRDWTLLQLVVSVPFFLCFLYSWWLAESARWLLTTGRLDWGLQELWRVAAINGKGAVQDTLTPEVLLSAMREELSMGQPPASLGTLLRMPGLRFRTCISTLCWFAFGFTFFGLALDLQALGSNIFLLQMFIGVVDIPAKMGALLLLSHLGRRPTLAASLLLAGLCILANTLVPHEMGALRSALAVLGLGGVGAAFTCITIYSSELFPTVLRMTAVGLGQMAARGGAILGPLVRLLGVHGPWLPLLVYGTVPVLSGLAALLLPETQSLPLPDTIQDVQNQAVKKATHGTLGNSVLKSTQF

[2] = tested on: xanthine oxidoreductase (XOD); settings: cited from earlier work
URAT1 [3] = target: T1, URAT1; test: Urate transport assay using URAT1-expressing 293A cells; format: cell-based; settings: for remaining activity at 100 µM: 293A, authentic chemical 100 μM, mean ± S.D., n = 3, read-out: URAT1-mediated urate transport activity, % of the control; for remaining activity at 100 µM / IC50: 20 s; for IC50: [14C]-urate 5 μM, 37 °C, URAT1-expressing 293A cells, read-out: IC50 against URAT1-mediated urate transport
Method: After 24 h, each vector was transiently transfected into the cells (1 μg of plasmid/5 μL of PEI-MAX/well). At 24 h after transfection, the culture medium was replaced with fresh one.
Briefly, 48 h after plasmid transfection, cells were washed twice with Buffer T2 and then pre-incubated in Buffer T2 for 15 min at 37 °C. Then, the buffer was exchanged with pre-warmed fresh Buffer T2 containing radiolabeled urate ([8-^14C]-uric acid; final concentration, 5 μM) with or without the test compound at the indicated concentrations (0, 0.3, 1, 3, 10, 30, 100, 300, or 500 μM); the cells were further incubated for 20 s at 37 °C; as vehicle control, 1% DMSO was used in this study. Subsequently, the cells were washed five times with ice-cold Buffer T2; then, the cells were lysed with 0.2 M NaOH solution (500 μL/well) on ice. The resulting lysates were neutralized with 1 M HCl solution (100 μL/well). […] Using a Pierce BCA Protein Assay Kit (Thermo Fisher Scientific, Kanagawa, Japan), protein concentration was determined. Urate transport activity was calculated as the incorporated clearance (μL/mg protein/min): (incorporated level of urate [DPM/mg protein/min]/urate level in the incubation mixture [DPM/μL]). URAT1-dependent urate transport activity was calculated by subtracting the urate transport activity of mock (control) cells from that of URAT1-expressing cells.
Urate uptake was examined in the presence of several concentrations of each test compound to determine their IC50 values. Then, URAT1-mediated transport activities were expressed as a percentage of the control (100%).

[4] = design: method as in PMID 26785820; settings: healthy males, four weeks, cited from earlier work

For O=C1C[C@@H](c2ccc(O)cc2)Oc2cc(O)cc(O)c21 [naringenin, reference compound], the “URAT1-mediated urate transport activity, % of the control” value (URAT1 [1]; 100 μM, previous study of the authors) is listed as 17.9 ± 7.7%.
In the case of O=C(CCc1ccc(O)c(O)c1)c1c(O)cc(O)c([C@@H]2O[C@H](CO)[C@@H](O)[C@H](O)[C@H]2O)c1O [aspalathin, reference compound], the “XOD inhibition (in words)” value [2] is listed as “inhibits XOD”.
In the case of O=c1c(-c2ccc(O)cc2)coc2cc(O)cc(O)c12 [Genistein], the remaining activity at 100 µM (URAT1 [3]) is reported as less than 50% and the IC50 (URAT1 [3]) is reported as 101 µM.
In the case of O=c1c(O)c(-c2ccc(O)cc2O)oc2cc(O)cc(O)c12 [morin, Morin], the remaining activity at 100 µM (URAT1 [3]) is listed as less than 50% and the “URAT1 inhibition (in words)” value (URAT1 [1]; previous report) is listed as “URAT1 inhibitor”.
In the case of O=c1c(O)c(-c2cc(O)c(O)c(O)c2)oc2cc(O)cc(O)c12 [Myricetin], the remaining activity at 100 µM (URAT1 [3]) is reported as less than 50% and the IC50 (URAT1 [3]) is reported as 18.1 µM.
Work on O=c1c(O)c(-c2ccc(O)c(O)c2)oc2c(O)c(O)cc(O)c12 [Gossypetin] yielded a remaining activity at 100 µM (URAT1 [3]) of less than 50% and an IC50 (URAT1 [3]) of 31.3 µM.
Molecule O=c1c(O)c(-c2ccc(O)c(O)c2)oc2cc(O)c(O)c(O)c12 [Quercetagetin] has a remaining activity at 100 µM (URAT1 [3]) of less than 50% and an IC50 (URAT1 [3]) of 18.4 µM.
With O=c1c(O)c(-c2ccc(O)c(O)c2)oc2cc(O)ccc12 [Fisetin] the remaining activity at 100 µM (URAT1 [3]) was less than 50% and the IC50 (URAT1 [3]) was 7.5 µM.
O=c1cc(-c2ccc(O)c(O)c2)oc2cc(O)cc(O)c12 [Luteolin] gave a remaining activity at 100 µM (URAT1 [3]) of less than 50% and an IC50 (URAT1 [3]) of 25.7 µM.
For O=C(/C=C/c1ccc(O)cc1)c1c(O)cc(O)cc1O [naringenin chalcone, Naringenin chalcone], the remaining activity at 100 µM (URAT1 [3]) was less than 50%.
In the case of O=c1c(O)c(-c2ccc(O)c(O)c2)oc2cc(O)cc(O)c12 [Quercetin], the “Effect on URAT1-mediated urate transport (in words)” value (URAT1 [3]; 300 μM, experimentally maximum concentration) is listed as “inhibited URAT1”, the IC50 (URAT1 [3]) is listed as 12.6 µM and the “Plasma uric acid concentration, mean difference” value ([4]; 500 mg quercetin daily as single tablet, mean plasma uric acid 5.5 mg/dL) is listed as -0.45 mg/dL. The “Urinary uric acid output over 24 h (24 h-UUA), before vs after treatment” value ([4]; 500 mg quercetin daily) was “no significant difference” and the “XOD inhibition (in words)” value [2] was “inhibitory activity”.
